Test results reported in patent US8658604B2, “Template-fixed beta-hairpin peptidomimetics with protease inhibitory activity” (Polyphor Ltd, priority 2005, dated 2014).
Where a SMILES comes first, the peptide text is derived from it.

What was measured:
[1] = target: Trypsin, from human pancreas (Homo sapiens, UniProt P07477); assay: Enzymatic assay, trypsin
[2] = target: T1, Elastase from human neutrophils (Homo sapiens, UniProt P08246); assay: Enzymatic assay, elastase
T1 sequence (P08246 30-267): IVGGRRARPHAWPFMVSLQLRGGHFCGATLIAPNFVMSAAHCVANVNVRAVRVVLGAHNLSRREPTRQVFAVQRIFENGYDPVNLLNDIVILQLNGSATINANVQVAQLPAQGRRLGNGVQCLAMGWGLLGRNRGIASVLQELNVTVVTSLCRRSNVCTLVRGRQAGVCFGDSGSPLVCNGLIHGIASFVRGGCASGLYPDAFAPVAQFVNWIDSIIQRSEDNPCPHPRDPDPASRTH

[3] = target: T2, CathepsinG, from human neutrophils (Homo sapiens, UniProt P08311); assay: Enzymatic assay, cathepsin G; settings: Cathepsin G IC50
T2 sequence (P08311 21-244): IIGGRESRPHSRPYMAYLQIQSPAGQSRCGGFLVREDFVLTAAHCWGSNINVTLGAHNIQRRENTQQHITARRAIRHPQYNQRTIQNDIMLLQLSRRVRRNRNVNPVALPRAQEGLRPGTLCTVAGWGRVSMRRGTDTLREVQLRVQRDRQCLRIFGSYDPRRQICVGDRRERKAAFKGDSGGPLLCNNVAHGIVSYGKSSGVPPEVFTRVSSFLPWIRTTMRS

[4] = test system: Tryptase, from human lung; assay: Enzymatic assay, tryptase; settings: for IC50: read-out: Tryptase IC50

SMILES	Trypsin at 100 μM % [1]	Elastase at 100 μM % ([2]; at 100 μM (stated in cell instead of IC50))	IC50 [3]	Tryptase at 100 μM % ([4]; at 100 μM)	IC50 ([2]; Elastase IC50)	IC50 [1]	IC50 [4]
CC[C@H](C)[C@@H]1NC(=O)[C@@H]2CCCN2C(=O)[C@@H]2CCCN2C(=O)[C@H](CC(=O)O)NC(=O)[C@H](CO)NC(=O)[C@H](CCCCN)NC(=O)[C@H]([C@@H](C)O)NC(=O)[C@@H]2CSSC[C@H](NC1=O)C(=O)N[C@@H](CO)C(=O)N1CCC[C@@H]1C(=O)N1CCC[C@H]1C(=O)N[C@@H](Cc1ccc(N)cc1)C(=O)N2 [Ex. 9] (HELM PEPTIDE1{[Nc1ccc(C[C@H](N[*:1])C(=O)[*:2])cc1].C.T.K.S.D.P.P.I.C.S.[dP].P}$PEPTIDE1,PEPTIDE1,2:R3-10:R3|PEPTIDE1,PEPTIDE1,1:R1-13:R2$$$V2.0)	88.1%	4.1 at %	105 nM				
CC[C@H](C)[C@@H]1NC(=O)[C@@H]2CCCN2C(=O)[C@@H]2CCCN2C(=O)[C@H](CC(=O)O)NC(=O)[C@H](CO)NC(=O)[C@H](CCCCN)NC(=O)[C@H]([C@@H](C)O)NC(=O)[C@@H]2CSSC[C@H](NC1=O)C(=O)N[C@@H](CO)C(=O)N[C@H](CC(=O)O)C(=O)N1CCC[C@H]1C(=O)N[C@@H](Cc1ccccc1)C(=O)N2 [Ex. 46] (HELM PEPTIDE1{F.C.T.K.S.D.P.P.I.C.S.[dD].P}$PEPTIDE1,PEPTIDE1,2:R3-10:R3|PEPTIDE1,PEPTIDE1,1:R1-13:R2$$$V2.0)				44.1%			
CC[C@H](C)[C@@H]1NC(=O)[C@@H]2CCCN2C(=O)[C@@H]2CCCN2C(=O)[C@H](CC(=O)O)NC(=O)[C@H](CO)NC(=O)[C@H](CCCCN)NC(=O)[C@H]([C@@H](C)O)NC(=O)[C@@H]2CSSC[C@H](NC1=O)C(=O)N[C@@H](CO)C(=O)N1CCC[C@@H]1C(=O)N[C@@H](CC(C)C)C(=O)N[C@@H](Cc1ccccc1)C(=O)N2 [Ex. 51] (HELM PEPTIDE1{C.S.[dP].L.F.C.T.K.S.D.P.P.I}$PEPTIDE1,PEPTIDE1,1:R3-6:R3|PEPTIDE1,PEPTIDE1,1:R1-13:R2$$$V2.0)			91 nM		> 100000 nM		
CC[C@H](C)[C@@H]1NC(=O)[C@@H]2CCCN2C(=O)[C@@H]2CCCN2C(=O)[C@H](CC(=O)O)NC(=O)[C@H](CO)NC(=O)[C@H](CCCCN)NC(=O)[C@H]([C@@H](C)O)NC(=O)[C@@H]2CSSC[C@H](NC1=O)C(=O)N[C@@H](CO)C(=O)N1CCC[C@@H]1C(=O)N[C@@H](CC(C)C)C(=O)N[C@@H](Cc1ccccc1)C(=O)N2 [Ex. 74] (HELM PEPTIDE1{C.S.[dP].L.F.C.T.K.S.D.P.P.I}$PEPTIDE1,PEPTIDE1,1:R3-6:R3|PEPTIDE1,PEPTIDE1,1:R1-13:R2$$$V2.0)	86%						
CC[C@H](C)[C@@H]1NC(=O)[C@@H]2CCCN2C(=O)[C@H]2CCCN2C(=O)[C@H](CCCNC(=N)N)NC(=O)[C@@H]2CSSC[C@H](NC1=O)C(=O)N[C@@H]([C@@H](C)O)C(=O)N[C@@H](CCCCN)C(=O)N[C@@H](CO)C(=O)N[C@@H](CC(C)C)C(=O)N1CCC[C@H]1C(=O)N1CCC[C@H]1C(=O)N[C@@H]([C@@H](C)CC)C(=O)N2 [Ex. 180] (HELM PEPTIDE1{I.C.T.K.S.L.P.P.I.C.R.[dP].P}$PEPTIDE1,PEPTIDE1,2:R3-10:R3|PEPTIDE1,PEPTIDE1,1:R1-13:R2$$$V2.0)			120 nM			60 nM	< 100 nM
CC[C@H](C)[C@@H]1NC(=O)[C@@H]2CCCN2C(=O)[C@H]2CCCN2C(=O)[C@H](CCCNC(=N)N)NC(=O)[C@@H]2CSSC[C@H](NC1=O)C(=O)N[C@@H]([C@@H](C)O)C(=O)N[C@@H](CCCCN)C(=O)N[C@@H](CO)C(=O)N[C@@H](CCc1ccccc1)C(=O)N1CCC[C@H]1C(=O)N1CCC[C@H]1C(=O)N[C@@H]([C@@H](C)CC)C(=O)N2 [Ex. 181] (HELM PEPTIDE1{I.C.T.K.S.[O=C([C@H](CCc1ccccc1)N[*:1])[*:2]].P.P.I.C.R.[dP].P}$PEPTIDE1,PEPTIDE1,2:R3-10:R3|PEPTIDE1,PEPTIDE1,1:R1-13:R2$$$V2.0)			127 nM			113 nM	40 nM
CC[C@H](C)[C@@H]1NC(=O)[C@@H]2CCCN2C(=O)[C@H]2CCCN2C(=O)[C@H](CCCNC(=N)N)NC(=O)[C@@H]2CSSC[C@H](NC1=O)C(=O)N[C@@H]([C@@H](C)O)C(=O)N[C@@H](CCCCN)C(=O)N[C@@H](CO)C(=O)N[C@@H](CC1CCCCC1)C(=O)N1CCC[C@H]1C(=O)N1CCC[C@H]1C(=O)N[C@@H]([C@@H](C)CC)C(=O)N2 [Ex. 182] (HELM PEPTIDE1{I.C.T.K.S.[Cha].P.P.I.C.R.[dP].P}$PEPTIDE1,PEPTIDE1,2:R3-10:R3|PEPTIDE1,PEPTIDE1,1:R1-13:R2$$$V2.0)			111 nM			59 nM	39 nM
CC[C@H](C)[C@@H]1NC(=O)[C@@H]2CCCN2C(=O)[C@H]2CCCN2C(=O)[C@H](CCCNC(=N)N)NC(=O)[C@@H]2CSSC[C@H](NC1=O)C(=O)N[C@@H]([C@@H](C)O)C(=O)N[C@@H](CCCCN)C(=O)N[C@@H](CO)C(=O)N[C@@H](Cc1ccc(O)cc1)C(=O)N1CCC[C@H]1C(=O)N1CCC[C@H]1C(=O)N[C@@H]([C@@H](C)CC)C(=O)N2 [Ex. 183] (HELM PEPTIDE1{I.C.T.K.S.Y.P.P.I.C.R.[dP].P}$PEPTIDE1,PEPTIDE1,2:R3-10:R3|PEPTIDE1,PEPTIDE1,1:R1-13:R2$$$V2.0)			243 nM			146 nM	25 nM
CC[C@H](C)[C@@H]1NC(=O)[C@@H]2CCCN2C(=O)[C@@H]2CCCN2C(=O)[C@H](CC(C)C)NC(=O)[C@H](CO)NC(=O)[C@H](CCCCN)NC(=O)[C@H]([C@@H](C)O)NC(=O)[C@@H]2CSSC[C@H](NC1=O)C(=O)N[C@@H](CCCNC(=N)N)C(=O)N1CCC[C@@H]1C(=O)N1CCC[C@H]1C(=O)N[C@@H](Cc1ccccc1)C(=O)N2 [Ex. 184] (HELM PEPTIDE1{F.C.T.K.S.L.P.P.I.C.R.[dP].P}$PEPTIDE1,PEPTIDE1,2:R3-10:R3|PEPTIDE1,PEPTIDE1,1:R1-13:R2$$$V2.0)			221 nM			48 nM	27 nM
CC[C@H](C)[C@@H]1NC(=O)[C@@H]2CCCN2C(=O)[C@H]2CCCN2C(=O)[C@H](CCCNC(=N)N)NC(=O)[C@@H]2CSSC[C@H](NC1=O)C(=O)N[C@@H]([C@@H](C)O)C(=O)N[C@@H](CCCCN)C(=O)N[C@@H](CO)C(=O)N[C@@H](CC(C)C)C(=O)N1CCC[C@H]1C(=O)N1CCC[C@H]1C(=O)N[C@@H](CCCNC(=N)N)C(=O)N2 [Ex. 185] (HELM PEPTIDE1{I.C.T.K.S.L.P.P.R.C.R.[dP].P}$PEPTIDE1,PEPTIDE1,2:R3-10:R3|PEPTIDE1,PEPTIDE1,1:R1-13:R2$$$V2.0)			514 nM			126 nM	14 nM
CC[C@H](C)[C@@H]1NC(=O)[C@@H]2CCCN2C(=O)[C@H]2CCCN2C(=O)[C@H](CCCNC(=N)N)NC(=O)[C@@H]2CSSC[C@H](NC1=O)C(=O)N[C@@H]([C@@H](C)O)C(=O)N[C@@H](CCCCN)C(=O)N[C@@H](CO)C(=O)N[C@@H](CC(C)C)C(=O)N1CCC[C@H]1C(=O)N1CCC[C@H]1C(=O)N[C@@H](CCCCN)C(=O)N2 [Ex. 186] (HELM PEPTIDE1{I.C.T.K.S.L.P.P.K.C.R.[dP].P}$PEPTIDE1,PEPTIDE1,2:R3-10:R3|PEPTIDE1,PEPTIDE1,1:R1-13:R2$$$V2.0)			337 nM			99 nM	15 nM
CC[C@H](C)[C@@H]1NC(=O)[C@@H]2CCCN2C(=O)[C@H]2CCCN2C(=O)[C@H](CCCNC(=N)N)NC(=O)[C@@H]2CSSC[C@H](NC1=O)C(=O)N[C@@H]([C@@H](C)O)C(=O)N[C@@H](CCCCN)C(=O)N[C@@H](CO)C(=O)N[C@@H](CC(C)C)C(=O)N1CCC[C@H]1C(=O)N1CCC[C@H]1C(=O)N[C@@H](Cc1c[nH]cn1)C(=O)N2 [Ex. 187] (HELM PEPTIDE1{I.C.T.K.S.L.P.P.H.C.R.[dP].P}$PEPTIDE1,PEPTIDE1,2:R3-10:R3|PEPTIDE1,PEPTIDE1,1:R1-13:R2$$$V2.0)			158 nM			39 nM	< 100 nM
CC[C@H](C)[C@@H]1NC(=O)[C@@H]2CCCN2C(=O)[C@H]2CCCN2C(=O)[C@H](CCCNC(=N)N)NC(=O)[C@@H]2CSSC[C@H](NC1=O)C(=O)N[C@@H]([C@@H](C)O)C(=O)N[C@@H](CCCCN)C(=O)N[C@@H](CO)C(=O)N[C@@H](CC(C)C)C(=O)N1CCC[C@H]1C(=O)N1CCC[C@H]1C(=O)N[C@@H](CCC(N)=O)C(=O)N2 [Ex. 188] (HELM PEPTIDE1{I.C.T.K.S.L.P.P.Q.C.R.[dP].P}$PEPTIDE1,PEPTIDE1,2:R3-10:R3|PEPTIDE1,PEPTIDE1,1:R1-13:R2$$$V2.0)			105 nM			34 nM	< 100 nM
CC[C@H](C)[C@@H]1NC(=O)[C@@H]2CCCN2C(=O)[C@H]2CCCN2C(=O)[C@H](CCCNC(=N)N)NC(=O)[C@@H]2CSSC[C@H](NC1=O)C(=O)N[C@@H]([C@@H](C)O)C(=O)N[C@@H](CCCCN)C(=O)N[C@@H](CO)C(=O)N[C@@H](CC(C)C)C(=O)N1CCC[C@H]1C(=O)N1CCC[C@H]1C(=O)N[C@@H]([C@@H](C)O)C(=O)N2 [Ex. 189] (HELM PEPTIDE1{I.C.T.K.S.L.P.P.T.C.R.[dP].P}$PEPTIDE1,PEPTIDE1,2:R3-10:R3|PEPTIDE1,PEPTIDE1,1:R1-13:R2$$$V2.0)			164 nM			39 nM	< 100 nM
